Measurements from the supplement of paper PMC9663587.

Columns and labels:
BSJ-03-123 = compound: CC(=O)c1c(C)c2cnc(Nc3ccc(N4CCN(CCOCCOCCOCCNC(=O)COc5cccc6c5C(=O)N(C5CCC(=O)NC5=O)C6=O)CC4)cn3)nc2n(C2CCCC2)c1=O [BSJ-03-123]; test: increase in dead-cell fraction, 72 h; higher = more death;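 note: breast cancer cell lines in 384-well plates, stained with Hoechst plus LIVE/DEAD far red dye and imaged, cells above an LDR intensity threshold counted dead, Hoechst-negative corpses included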
[1] = compound: CC(=O)c1c(C)c2cnc(Nc3ccc(N4CCNCC4)cn3)nc2n(C2CCCC2)c1=O; test: as above
[2] = compound: CCN1CCN(Cc2ccc(Nc3ncc(F)c(-c4cc(F)c5nc(C)n(C(C)C)c5c4)n3)nc2)CC1; test: as above
Neratinib/HKI272 = compound: CCOc1cc2ncc(C#N)c(Nc3ccc(OCc4ccccn4)c(Cl)c3)c2cc1NC(=O)/C=C/CN(C)C [Neratinib/HKI272]; test: as above
[3] = compound: CCc1cnn2c(NCc3ccc[n+]([O-])c3)cc(N3CCCC[C@H]3CCO)nc12; test: as above
LEE011/Ribociclib = compound: CN(C)C(=O)c1cc2cnc(Nc3ccc(N4CCNCC4)cn3)nc2n1C1CCCC1 [LEE011/Ribociclib]; test: as above
THZ1 [4] = compound: T1, CN(C)C/C=C/C(=O)Nc1ccc(C(=O)Nc2cccc(Nc3ncc(Cl)c(-c4c[nH]c5ccccc45)n3)c2)cc1 [THZ1]; test: as above
Flavopiridol [5] = compound: T2, CN1CC[C@H](c2c(O)cc(O)c3c(=O)cc(-c4ccccc4Cl)oc23)[C@H](O)C1 [Flavopiridol]; test: as above
[6] = compound: CC(=O)c1c(C)c2cnc(Nc3ccc(N4CCNCC4)cn3)nc2n(C2CCCC2)c1=O; test: GR value, 72 h; higher = faster growth (1 = untreated, <0 = killing);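 note: breast cancer and non-malignant breast epithelial lines, nine half-log doses, viable cells counted by Hoechst and LIVE/DEAD dye imaging versus time-zero plates and DMSO controls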
THZ531 = compound: CN(C)C/C=C/C(=O)Nc1ccc(C(=O)N2CCC[C@@H](Nc3ncc(Cl)c(-c4c[nH]c5ccccc45)n3)C2)cc1 [THZ531]; test: as above
THZ1 [7] = compound: T1, THZ1; test: as above
Flavopiridol [8] = compound: T2, Flavopiridol; test: as above

MDAMB361 was tested, and the “increase in dead-cell fraction” value (BSJ-03-123; 0.001 µM) was 0.0068, the “increase in dead-cell fraction” value (BSJ-03-123; 0.003162 µM) was 0.0047 and the “increase in dead-cell fraction” value (BSJ-03-123; 0.01 µM) was 0.0008. The “increase in dead-cell fraction” value (BSJ-03-123; 0.03162 µM) was 0.006, the “increase in dead-cell fraction” value (BSJ-03-123; 0.1 µM) was 0.0093 and the “increase in dead-cell fraction” value (BSJ-03-123; 0.3162 µM) was 0.0131. The “increase in dead-cell fraction” value (BSJ-03-123; 1 µM) was 0.0189, the “increase in dead-cell fraction” value (BSJ-03-123; 3.162 µM) was 0.0054 and the “increase in dead-cell fraction” value (BSJ-03-123; 10 µM) was 0.0713. For the same cell line, the “increase in dead-cell fraction” value ([1]; 0.0003162 µM) was 0.0032, the “increase in dead-cell fraction” value ([1]; 0.001 µM) was -0.0062 and the “increase in dead-cell fraction” value ([1]; 0.003162 µM) was -0.002. The “increase in dead-cell fraction” value ([1]; 0.01 µM) was 0.0022, the “increase in dead-cell fraction” value ([1]; 0.03162 µM) was 0.0148 and the “increase in dead-cell fraction” value ([1]; 0.1 µM) was 0.0157. For the same cell line, the “increase in dead-cell fraction” value ([1]; 0.3162 µM) was 0.0051, the “increase in dead-cell fraction” value ([1]; 1 µM) was 0.0076 and the “increase in dead-cell fraction” value ([1]; 3.162 µM) was 0.0191. For the same cell line, the “increase in dead-cell fraction” value ([2]; 0.001 µM) was -0.0026, the “increase in dead-cell fraction” value ([2]; 0.003162 µM) was -0.0006 and the “increase in dead-cell fraction” value ([2]; 0.01 µM) was 0.0107. The “increase in dead-cell fraction” value ([2]; 0.03162 µM) was 0.0026, the “increase in dead-cell fraction” value ([2]; 0.1 µM) was 0.0066 and the “increase in dead-cell fraction” value ([2]; 0.3162 µM) was 0.0052. For the same cell line, the “increase in dead-cell fraction” value ([2]; 1 µM) was 0.0161, the “increase in dead-cell fraction” value ([2]; 3.162 µM) was 0.0884 and the “increase in dead-cell fraction” value ([2]; 10 µM) was 0.172. The “increase in dead-cell fraction” value (Neratinib/HKI272; 0.0003162 µM) was 0.0068, the “increase in dead-cell fraction” value (Neratinib/HKI272; 0.001 µM) was 0.0063 and the “increase in dead-cell fraction” value (Neratinib/HKI272; 0.003162 µM) was 0.028. For the same cell line, the “increase in dead-cell fraction” value (Neratinib/HKI272; 0.01 µM) was 0.0198, the “increase in dead-cell fraction” value (Neratinib/HKI272; 0.03162 µM) was 0.0227 and the “increase in dead-cell fraction” value (Neratinib/HKI272; 0.1 µM) was 0.0339. For the same cell line, the “increase in dead-cell fraction” value (Neratinib/HKI272; 0.3162 µM) was 0.0406, the “increase in dead-cell fraction” value (Neratinib/HKI272; 1 µM) was 0.105 and the “increase in dead-cell fraction” value (Neratinib/HKI272; 3.162 µM) was 0.435. The “increase in dead-cell fraction” value ([3]; 0.0001 µM) was 0.0019, the “increase in dead-cell fraction” value ([3]; 0.0003162 µM) was -0.0027 and the “increase in dead-cell fraction” value ([3]; 0.001 µM) was -0.0041. For the same cell line, the “increase in dead-cell fraction” value ([3]; 0.003162 µM) was 0.0003, the “increase in dead-cell fraction” value ([3]; 0.01 µM) was 0.0259 and the “increase in dead-cell fraction” value ([3]; 0.03162 µM) was 0.303. The “increase in dead-cell fraction” value ([3]; 0.1 µM) was 0.148, the “increase in dead-cell fraction” value ([3]; 0.3162 µM) was 0.14 and the “increase in dead-cell fraction” value ([3]; 1 µM) was 0.153. The “increase in dead-cell fraction” value (LEE011/Ribociclib; 0.001 µM) was 0.0114, the “increase in dead-cell fraction” value (LEE011/Ribociclib; 0.003162 µM) was 0.0106 and the “increase in dead-cell fraction” value (LEE011/Ribociclib; 0.01 µM) was 0.009. The “increase in dead-cell fraction” value (LEE011/Ribociclib; 0.03162 µM) was 0.0147, the “increase in dead-cell fraction” value (LEE011/Ribociclib; 0.1 µM) was 0.0129 and the “increase in dead-cell fraction” value (LEE011/Ribociclib; 0.3162 µM) was 0.0218. The “increase in dead-cell fraction” value (LEE011/Ribociclib; 1 µM) was 0.0159, the “increase in dead-cell fraction” value (LEE011/Ribociclib; 3.162 µM) was 0.0012 and the “increase in dead-cell fraction” value (LEE011/Ribociclib; 10 µM) was 0.0018. The “increase in dead-cell fraction” value (THZ1 [4]; 0.0001 µM) was -0.0046, the “increase in dead-cell fraction” value (THZ1 [4]; 0.0003162 µM) was -0.0085 and the “increase in dead-cell fraction” value (THZ1 [4]; 0.001 µM) was -0.0074. For the same cell line, the “increase in dead-cell fraction” value (THZ1 [4]; 0.003162 µM) was 0.0099, the “increase in dead-cell fraction” value (THZ1 [4]; 0.01 µM) was 0.016 and the “increase in dead-cell fraction” value (THZ1 [4]; 0.03162 µM) was 0.0299. The “increase in dead-cell fraction” value (THZ1 [4]; 0.1 µM) was 0.166, the “increase in dead-cell fraction” value (THZ1 [4]; 0.3162 µM) was 0.246 and the “increase in dead-cell fraction” value (THZ1 [4]; 1 µM) was 0.186. For the same cell line, the “increase in dead-cell fraction” value (Flavopiridol [5]; 0.0001 µM) was 0.0029, the “increase in dead-cell fraction” value (Flavopiridol [5]; 0.0003162 µM) was -0.0069 and the “increase in dead-cell fraction” value (Flavopiridol [5]; 0.001 µM) was -0.0039. The “increase in dead-cell fraction” value (Flavopiridol [5]; 0.003162 µM) was 0.0101, the “increase in dead-cell fraction” value (Flavopiridol [5]; 0.01 µM) was 0.0075 and the “increase in dead-cell fraction” value (Flavopiridol [5]; 0.03162 µM) was 0.0039. The “increase in dead-cell fraction” value (Flavopiridol [5]; 0.1 µM) was -0.0034, the “increase in dead-cell fraction” value (Flavopiridol [5]; 0.3162 µM) was 0.0273 and the “increase in dead-cell fraction” value (Flavopiridol [5]; 1 µM) was 0.0899. It also gave a GR value ([6]; 0.0003162 µM) of 0.963 GR, a GR value ([6]; 0.001 µM) of 1.12 GR and a GR value ([6]; 0.003162 µM) of 0.976 GR. It also gave a GR value ([6]; 0.01 µM) of 0.78 GR, a GR value ([6]; 0.03162 µM) of 0.319 GR and a GR value ([6]; 0.1 µM) of 0.172 GR. It also gave a GR value ([6]; 0.3162 µM) of 0.0854 GR, a GR value ([6]; 1 µM) of 0.151 GR and a GR value ([6]; 3.162 µM) of 0.184 GR. It also gave a GR value (THZ531; 0.0001 µM) of 0.955 GR, a GR value (THZ531; 0.0003162 µM) of 0.912 GR and a GR value (THZ531; 0.001 µM) of 0.758 GR. The GR value (THZ531; 0.003162 µM) was 0.849 GR, the GR value (THZ531; 0.01 µM) was 1.06 GR and the GR value (THZ531; 0.03162 µM) was 0.299 GR. The GR value (THZ531; 0.1 µM) was -0.82 GR, the GR value (THZ531; 0.3162 µM) was -0.756 GR and the GR value (THZ531; 1 µM) was -0.539 GR. The GR value (THZ1 [7]; 0.0001 µM) was 0.939 GR, the GR value (THZ1 [7]; 0.0003162 µM) was 0.772 GR and the GR value (THZ1 [7]; 0.001 µM) was 0.986 GR. It also gave a GR value (THZ1 [7]; 0.003162 µM) of 0.521 GR, a GR value (THZ1 [7]; 0.01 µM) of 0.463 GR and a GR value (THZ1 [7]; 0.03162 µM) of 0.153 GR. It also gave a GR value (THZ1 [7]; 0.1 µM) of -0.511 GR, a GR value (THZ1 [7]; 0.3162 µM) of -0.804 GR and a GR value (THZ1 [7]; 1 µM) of -0.71 GR. For the same cell line, the GR value (Flavopiridol [8]; 0.0001 µM) was 1.05 GR, the GR value (Flavopiridol [8]; 0.0003162 µM) was 0.905 GR and the GR value (Flavopiridol [8]; 0.001 µM) was 0.752 GR. The GR value (Flavopiridol [8]; 0.003162 µM) was 0.73 GR, the GR value (Flavopiridol [8]; 0.01 µM) was 0.942 GR and the GR value (Flavopiridol [8]; 0.03162 µM) was 0.753 GR. It also gave a GR value (Flavopiridol [8]; 0.1 µM) of 0.562 GR, a GR value (Flavopiridol [8]; 0.3162 µM) of -0.0494 GR and a GR value (Flavopiridol [8]; 1 µM) of -0.402 GR.
